Series [1] concerns the target T1, CD45 (Homo sapiens, UniProt P08575).
T1 construct: purchased BIOMOL (Plymouth Meeting, P.A.)
T1 sequence (P08575 599-1306 limits assumed): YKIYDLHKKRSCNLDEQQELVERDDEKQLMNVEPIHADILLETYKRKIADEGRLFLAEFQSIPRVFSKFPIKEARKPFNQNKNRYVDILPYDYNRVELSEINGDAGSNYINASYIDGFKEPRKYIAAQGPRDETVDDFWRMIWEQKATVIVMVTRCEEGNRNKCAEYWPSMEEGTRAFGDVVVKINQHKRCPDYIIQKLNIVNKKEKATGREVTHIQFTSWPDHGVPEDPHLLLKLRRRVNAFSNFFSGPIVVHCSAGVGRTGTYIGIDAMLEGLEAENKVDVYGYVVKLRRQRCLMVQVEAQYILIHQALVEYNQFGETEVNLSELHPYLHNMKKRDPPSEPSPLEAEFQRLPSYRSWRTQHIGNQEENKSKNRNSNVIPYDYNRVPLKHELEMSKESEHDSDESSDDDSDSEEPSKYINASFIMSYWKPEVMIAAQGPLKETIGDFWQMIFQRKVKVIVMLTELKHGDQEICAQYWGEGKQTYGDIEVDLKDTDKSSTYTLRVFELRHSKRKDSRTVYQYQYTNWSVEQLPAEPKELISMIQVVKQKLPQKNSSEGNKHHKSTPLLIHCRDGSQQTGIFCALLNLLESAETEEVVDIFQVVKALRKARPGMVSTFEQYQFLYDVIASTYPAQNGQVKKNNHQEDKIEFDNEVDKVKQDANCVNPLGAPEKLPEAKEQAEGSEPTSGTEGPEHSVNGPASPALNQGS
Briefly: Phosphatase assay using pNPP as substrate. The following applies: pH 7.0. The series is classed as biochemical. The method, then: (§1) Potent inhibitors of CD45 have been discovered. Such inhibitors are useful for the treatment of various autoimmune disorders as well as for treatment of OGR. Inhibition of the phosphatase activity of CD45 by compounds of the present invention has been shown by incubating the cytosolic portion of CD45 with the compounds and p-nitrophenyl phosphate (pNPP), a phosphatase substrate. Spectrophotometric monitoring has shown that the liberation of p-nitrophenol from the substrate by CD45 is inhibited in the presence of the compounds disclosed herein. Inhibition of the phosphatase activity of CD45 by compounds of the present invention has also been shown using a p56^lckcarboxy-terminal phosphorylated peptide as a substrate.
CD45 enzyme was obtained from BIOMOL (Plymouth Meeting, P.A.). Phosphatase activity was assayed in a buffer containing final concentrations of 25 mM imidazole at pH 7.0, 50 mM NaCl, 2.5 mM ethylenediaminetetraacetic acid (“EDTA”), 5 mM dithiothreitol (“DTT”) and 10 μg/mL bovine serum albumin (“BSA”) using pNPP as a substrate. […] Activity was measured by following the increase in absorbance at 405 nm using a SpectraMax Plus spectrophotometric plate reader (Molecular Devices, Sunnyvale, Calif.).

Series [2] has as its target T1, CD45. Nature of the series: Phosphatase assay using lck 10-mer as substrate. In kind it is biochemical. The following applies: lck carboxy-terminal peptide TEGQpYQPQP substrate, read-out: Ick IC50. Here is the method:
as §1
Phosphatase activity was assayed in 96 well plates in a buffer containing final concentrations of 25 mM HEPES at pH 7.2, 5 mM DTT and 10 μg/mL BSA, using the lck carboxy-terminal peptide TEGQpYQPQP as the substrate (Cho, H., Krishnaraj, R., Itoh, M., Kitas, E., Bannwarth, W., Saito, H., Walsh, C. T. 1993. Substrate specificities of catalytic fragments of protein tyrosine phosphatases (HPTPb, LAR, and CD45) toward the phosphotyrosylpeptide substrates and thiophosphotyrosylated peptides as inhibitors. Protein Science 2:977-984). Compounds were tested in a range from 30 to 0.01 μM in a final concentration of 5% DMSO. Enzyme was incubated with substrate, with or without compound, at room temperature for 1.5 h. At the end of the incubation period, BIOMOL “Green Reagent” (BIOMOL, Plymouth Meeting, Pa.) was added to each well, the plates incubated at room temperature for 30 min and absorbance read at 620 nm.

A short description of series [3]: Cytotoxicity assay (Calcein-AM uptake). The series is classed as cell-based. The following applies: human, PHA-expanded T-cell lymphoblasts derived from PBMC, overnight incubation, Calcein-AM viability.
Method: Calcein-AM (Molecular Probes, Eugene, Oreg.) uptake, as a quantitative measure of cell viability, was used to evaluate the toxic effect of compounds on T cells.
The T-cell lymphoblasts were purified by separation over Lymphoprep, plated at 2×10 ^5/well in a round bottom 96-well plate containing RPMI with compound and incubated overnight at 37° C. in an incubator containing 5% CO2. The dilution scheme and culture media were the same as those used in the T-cell proliferation assay. After the incubation period, cells were washed with Dulbecco's phosphate- buffered saline (D-PBS) and incubated with 1 μM Calcein-AM for 30-45 min in D-PBS as described in the technical sheet provided with The LIVE/DEAD Viability/Cytotoxicity Kit from Molecular Probes.
In series [4] the test system is Peripheral blood mononuclear cells (T cells). Nature of the series: T cell proliferation assay (anti-CD3 OKT3 activated PBMC, [3H]thymidine). In kind it is cell-based. As to conditions: Homo sapiens; PBMC activated with OKT3 30 ng/mL; read-out: T cell prolif. IC50. The method, then:
Whole blood was obtained from healthy human blood donors. Peripheral blood mononuclear cells (“PBMC”) were isolated using Lymphoprep density-gradient centrifugation (Nycomed Amersham, Oslo, Norway), washed, counted and resuspended at 2×10^6 cells/mL in RPMI 1640 medium containing glutamine, 0.1 mg/mL gentamycin and 10% heat inactivated human serum. PBMC were transferred to 96-well plates (2×10^5 cells/well) containing compound or vehicle control, with the final concentration of DMSO not to exceed 0.3%, and incubated for 1 hour before addition of the activating anti-CD3 antibody, OKT3 (30 ng/mL). After 24 hours in culture, the cells were pulsed with [^3H]thymidine (1 μCi/well) overnight and harvested the next day onto 96-well Packard GF/C filter plates using a Packard Cell Harvester (Packard Instruments, Meriden, Conn.). The filter plate was dried, the bottom of the plate sealed, 25 μL of Microscint 20 scintillation fluid added to each well, the top of the plate sealed with TopSeal-A, and the plate counted on a Packard TopCount. The data from the TopCount is transferred into Excel 5 (Microsoft, Redmond, Wash.) and formatted for EC50 determination using Prism software (GraphPad Software, San Diego, Calif.).

Consider `O=C1C(=O)c2cccnc2-c2ccccc21` [Example 2, benzo[h]quinoline-5,6-dione], for which the IC50 (in general, the concentration at which inhibition is half-maximal) was 1000 nM in series [1]; 3.1 µM in series [2] (pH 7.2, […]); 240 nM in series [4]. In addition, in series [3], the CC50 (in general, the concentration that lowers cell viability or growth by half) is 2.4 µM.
On to `O=C1C(=O)c2ncccc2-c2ccccc21` [Example 1, benzo[f]quinoline-5,6-dione], for which the IC50 is 2300 nM in series [1]; more than 30 µM in series [2] (pH 7.2, 1.5 h); 400 nM in series [4]. The CC50 in series [3] is 7 µM.
As to `O=C1C(=O)c2ccsc2-c2ccccc21` [Example 4, naphtho[1,2-b]thiophene-4,5-dione], the IC50 in series [1] was 1500 nM; in series [2] (pH 7.2, 1.5 h), more than 30 µM. Further, the CC50 in series [3] was 3.5 µM.
On to `O=C1C(=O)c2ccoc2-c2ccccc21` [Example 3, naphtho[,1,2b]furan-4,5-dione], for which the IC50 in series [1] is 1100 nM; in series [2] (pH 7.2, […]), 4.5 µM. Besides, the CC50 in series [3] is 3.5 µM.

The record behind these values is patent US20030130298A1, “Cd45 inhibitors” (priority 1999, published 2003).
